The subject of assay [1] is Mus musculus. Put plainly: Effect on bone mineral density in ovariectomized kunming mouse at 4 umol/kg, sc qd for 4 weeks. Format: functional.
The test system of assay [2] is Mus musculus. Put plainly: Effect on uterine wet weight in ovariectomized kunming mouse at 4 umol/kg, sc qd for 4 weeks. Format: functional.
Assay [3] deals with T1, Estrogen receptor beta (Homo sapiens, UniProt Q92731). Put plainly: Agonist activity at human ERbeta expressed in yeast AH109 by yeast two hybrid assay. Format: functional.
T1 sequence (Q92731 whole entry): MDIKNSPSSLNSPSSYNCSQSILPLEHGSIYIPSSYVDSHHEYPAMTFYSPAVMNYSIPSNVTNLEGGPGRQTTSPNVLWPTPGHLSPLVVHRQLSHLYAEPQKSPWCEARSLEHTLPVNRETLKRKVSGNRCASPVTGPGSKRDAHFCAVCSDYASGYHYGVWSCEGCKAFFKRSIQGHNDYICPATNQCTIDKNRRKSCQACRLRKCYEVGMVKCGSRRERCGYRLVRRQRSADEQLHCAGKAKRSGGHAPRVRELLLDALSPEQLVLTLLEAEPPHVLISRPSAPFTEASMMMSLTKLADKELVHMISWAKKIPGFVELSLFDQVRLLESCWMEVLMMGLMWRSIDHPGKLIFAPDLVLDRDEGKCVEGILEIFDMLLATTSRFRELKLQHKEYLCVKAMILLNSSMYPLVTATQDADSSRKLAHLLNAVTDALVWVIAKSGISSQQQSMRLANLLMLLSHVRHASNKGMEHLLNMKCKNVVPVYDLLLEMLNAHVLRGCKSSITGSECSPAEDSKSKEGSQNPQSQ
The target of assay [4] is T2, Estrogen receptor (Homo sapiens, UniProt P03372).
T2 sequence (P03372 whole entry): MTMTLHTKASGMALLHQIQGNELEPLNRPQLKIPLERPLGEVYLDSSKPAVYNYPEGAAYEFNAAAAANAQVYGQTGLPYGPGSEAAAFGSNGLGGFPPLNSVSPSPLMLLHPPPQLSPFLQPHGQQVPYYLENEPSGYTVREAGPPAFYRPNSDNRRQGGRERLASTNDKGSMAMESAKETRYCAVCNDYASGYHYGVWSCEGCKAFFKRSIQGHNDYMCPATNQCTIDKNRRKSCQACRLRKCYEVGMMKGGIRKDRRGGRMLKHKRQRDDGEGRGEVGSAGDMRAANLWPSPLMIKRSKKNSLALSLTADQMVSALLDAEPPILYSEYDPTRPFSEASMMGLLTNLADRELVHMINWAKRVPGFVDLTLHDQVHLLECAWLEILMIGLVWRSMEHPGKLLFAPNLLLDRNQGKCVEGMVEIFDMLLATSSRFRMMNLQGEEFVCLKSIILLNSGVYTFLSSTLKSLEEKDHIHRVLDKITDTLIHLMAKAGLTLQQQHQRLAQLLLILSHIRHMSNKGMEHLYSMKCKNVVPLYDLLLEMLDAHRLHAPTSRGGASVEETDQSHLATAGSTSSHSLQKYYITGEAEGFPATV
Put plainly: Agonist activity at human ERalpha expressed in yeast AH109 by yeast two hybrid assay. Format: functional.

The species entered for assay [5] is Homo sapiens. Put plainly: Selectivity ratio of EC50 for human ERalpha to EC50 for human ERbeta.
In assay [6] the target is T1, Estrogen receptor beta.
Description: Displacement of [3H]17beta-estradiol from recombinant human ERbeta
Assay [7] deals with T2, Estrogen receptor.
Description: (§1) Displacement of [3H]17beta-estradiol from recombinant human ERalpha
The species named for assay [8] is Homo sapiens. Put plainly: Selectivity for human ERbeta over human ERalpha.
Assay [9] deals with T2, Estrogen receptor. Put plainly: Antagonist activity at ERalpha expressed in yeast AH109 assessed as inhibition of 17-beta-estradiol induced alpha-galactosidase activity. Format: functional.
For assay [10], the target named is T3, Estrogen receptor (Homo sapiens) (UniProt P03372).
T3 sequence (whole entry): T2 sequence (P03372 whole entry)
Description: as §1

Calls of active or inactive are those of the source. The calls are words filed in the database; no cut-off is given here. A value given as a limit tells only on which side of the number the result lay.

For the compound `O=C(c1ccc(OCCN2CCCCC2)cc1)c1c(-c2ccc(O)cc2)sc2cc(O)ccc12` [RALOXIFENE], the Activity with Mus musculus [1] is 608 mg/cm3; with Mus musculus [2], 69.5 mg.
On to `Oc1ccc(-c2cnc3cc(O)ccc3c2)cc1`, for which the figures for the EC50 at Estrogen receptor beta [3] and at Estrogen receptor [4] were 37500 nM and more than 100000 nM, respectively. Further, the Activity was 430 mg/cm3 with Mus musculus [1] and 33.1 mg with Mus musculus [2].
As to `CN1CC(c2ccc(O)cc2)Cc2ccc(O)cc21` (stereo not drawn), in the assay listed under Homo sapiens [5], the Ratio EC50 amounted to 50. Also, the IC50 against Estrogen receptor beta [6] stood at 220 nM; at Estrogen receptor [7] it was 2950 nM. Moreover, the EC50 at Estrogen receptor beta [3] amounted to 300 nM; at Estrogen receptor [4], 15200 nM. Further, the figures for the Activity in the assay on Mus musculus [1] and in the assay on Mus musculus [2] were 455 mg/cm3 and 31.8 mg, respectively. The Ratio IC50 in the assay filed under Homo sapiens [8] turned out to be 13.3.
As for `Oc1ccc(C2Cc3ccc(O)cc3N(CC3CC3)C2)cc1` (stereo not drawn), the IC50 worked out at 230 nM against Estrogen receptor beta [6], 1630 nM against Estrogen receptor [7] and 5570 nM at Estrogen receptor [9]. The EC50 on Estrogen receptor beta [3] was found to be 6890 nM. Moreover, the figures for the Activity in the assay on Mus musculus [1] and with Mus musculus [2] were 461 mg/cm3 and 30.8 mg, respectively. The Ratio IC50 in the assay listed under Homo sapiens [8] amounted to 7.1.
As to `O=CN1CC(c2ccc(O)cc2)Cc2ccc(O)cc21` (stereo not drawn), the Activity is 463 mg/cm3 with Mus musculus [1] and 36.4 mg in the assay with Mus musculus [2].
Turning to `Oc1ccc(C2CNc3cc(O)ccc3C2)cc1` (stereo not drawn), the EC50 at Estrogen receptor beta [3] was 9700 nM; on Estrogen receptor [4], more than 100000 nM.
Turning to `CC(=O)N1CC(c2ccc(O)cc2)Cc2ccc(O)cc21` (stereo not drawn), the Activity in the assay on Mus musculus [1] worked out at 451 mg/cm3; in the assay with Mus musculus [2], 29.1 mg.
Turning to `CCN1CC(c2ccc(O)cc2)Cc2ccc(O)cc21` (stereo not drawn), the Ratio EC50 in the assay listed under Homo sapiens [5] worked out at 41. Also, the IC50 on Estrogen receptor beta [6] came to 83 nM; at Estrogen receptor [7], 1410 nM. The EC50 on Estrogen receptor beta [3] worked out at 580 nM; on Estrogen receptor [4], 24300 nM. Further, the Activity with Mus musculus [1] is 454 mg/cm3; in the assay on Mus musculus [2], 31.7 mg. Besides, the Ratio IC50 in the assay filed under Homo sapiens [8] is 17.
As to `Oc1ccc(C2Cc3ccc(O)cc3NC2=S)cc1` (stereo not drawn), the outcome in [10] was inactive. On Estrogen receptor beta [6], this compound showed an IC50 of 4900 nM. The Activity in the assay with Mus musculus [1] stood at 483 mg/cm3; in the assay on Mus musculus [2] it was 38.7 mg.
Regarding `CCCN1CC(c2ccc(O)cc2)Cc2ccc(O)cc21` (stereo not drawn), the IC50 against Estrogen receptor beta [6] came out at 140 nM; at Estrogen receptor [7], 2470 nM; on Estrogen receptor [9], 2650 nM. Besides, it took 4750 nM to reach a half-maximal effect on Estrogen receptor beta [3] (EC50). The Activity with Mus musculus [1] amounted to 439 mg/cm3; with Mus musculus [2], 28.3 mg. In addition, the Ratio IC50 in the assay filed under Homo sapiens [8] was determined as 17.9.
`CS(=O)(=O)N1CC(c2ccc(O)cc2)Cc2ccc(O)cc21` (stereo not drawn): the IC50 against Estrogen receptor beta [6] is 520 nM; against Estrogen receptor [7], 32100 nM. The Activity in the assay with Mus musculus [1] is 475 mg/cm3; in the assay on Mus musculus [2] it was 32.5 mg. The Ratio IC50 in the assay filed under Homo sapiens [8] came to 61.5.
Regarding `O=C(C1CC1)N1CC(c2ccc(O)cc2)Cc2ccc(O)cc21` (stereo not drawn), the outcome in assay [10] was inactive. On Estrogen receptor beta [6], this compound had an IC50 of 2950 nM.

A word on the EC50: it is the midpoint of the concentration-response curve. A low value points to greater potency. In general, IC50 refers to the point on the concentration scale where inhibition reaches its midpoint.

Values taken from ChEMBL document CHEMBL1149626, “Aza analogues of equol: novel ligands for estrogen receptor beta” (Bioorg Med Chem, 2007).
